Blank lines part the entries; values can stand above or below the compound they belong to.
Experiments:
[1] = target: Receptor tyrosine-protein kinase erbB-2 (Homo sapiens, UniProt P04626); assay: Selectivity interaction (Radiometric kinase assay (using 10 uM ATP)) EUB0000601a ERBB2
[2] = target: Serine/threonine-protein kinase 17A (Homo sapiens, UniProt Q9UEE5)
[3] = target: T1, Phosphatidylinositol 3-kinase C2 domain-containing subunit gamma (Homo sapiens) (UniProt O75747); assay: Selectivity interaction (KinomeScan (DiscoverX)) EUB0000045b PIK3C2G
T1 sequence (whole entry): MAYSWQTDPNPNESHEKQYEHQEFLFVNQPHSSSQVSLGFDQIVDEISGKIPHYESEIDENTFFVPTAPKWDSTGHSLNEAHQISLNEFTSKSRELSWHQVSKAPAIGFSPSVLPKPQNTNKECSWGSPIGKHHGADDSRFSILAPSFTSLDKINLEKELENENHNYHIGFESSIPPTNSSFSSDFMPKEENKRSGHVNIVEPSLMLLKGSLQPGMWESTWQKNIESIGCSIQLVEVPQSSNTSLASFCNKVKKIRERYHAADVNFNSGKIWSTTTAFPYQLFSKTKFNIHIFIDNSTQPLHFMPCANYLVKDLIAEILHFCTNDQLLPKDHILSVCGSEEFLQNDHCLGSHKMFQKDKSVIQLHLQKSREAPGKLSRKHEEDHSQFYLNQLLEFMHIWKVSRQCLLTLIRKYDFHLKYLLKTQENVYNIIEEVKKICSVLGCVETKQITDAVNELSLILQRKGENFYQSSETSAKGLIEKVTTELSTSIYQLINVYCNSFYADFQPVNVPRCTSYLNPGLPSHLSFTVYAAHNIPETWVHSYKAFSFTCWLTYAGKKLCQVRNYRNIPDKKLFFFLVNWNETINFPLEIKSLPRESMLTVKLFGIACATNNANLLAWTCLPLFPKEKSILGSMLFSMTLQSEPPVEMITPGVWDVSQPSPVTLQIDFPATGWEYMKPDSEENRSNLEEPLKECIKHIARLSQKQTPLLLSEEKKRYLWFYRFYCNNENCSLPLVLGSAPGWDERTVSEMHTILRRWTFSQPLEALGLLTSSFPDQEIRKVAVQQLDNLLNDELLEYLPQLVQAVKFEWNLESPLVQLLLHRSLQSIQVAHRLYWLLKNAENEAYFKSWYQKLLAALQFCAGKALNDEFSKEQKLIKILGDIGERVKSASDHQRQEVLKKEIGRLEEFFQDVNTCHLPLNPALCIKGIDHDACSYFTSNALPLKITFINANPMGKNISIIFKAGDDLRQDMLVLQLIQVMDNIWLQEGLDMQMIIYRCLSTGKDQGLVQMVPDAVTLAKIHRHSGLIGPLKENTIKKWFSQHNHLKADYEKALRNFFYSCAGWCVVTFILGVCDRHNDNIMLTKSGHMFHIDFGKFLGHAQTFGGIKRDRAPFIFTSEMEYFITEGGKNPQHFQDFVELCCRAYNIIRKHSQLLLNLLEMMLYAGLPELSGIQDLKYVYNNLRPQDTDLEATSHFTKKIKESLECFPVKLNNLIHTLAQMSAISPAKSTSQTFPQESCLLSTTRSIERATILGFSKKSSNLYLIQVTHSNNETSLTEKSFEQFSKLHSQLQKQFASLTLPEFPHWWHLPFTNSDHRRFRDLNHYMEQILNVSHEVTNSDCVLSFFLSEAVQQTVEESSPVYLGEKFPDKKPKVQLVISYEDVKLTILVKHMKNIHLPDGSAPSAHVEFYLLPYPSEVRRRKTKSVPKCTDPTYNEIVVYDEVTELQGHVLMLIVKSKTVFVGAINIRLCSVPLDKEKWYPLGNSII

Insulin receptor = Insulin receptor (Homo sapiens, UniProt P06213)
[4] = target: T2, Tyrosine-protein kinase ZAP-70 (Homo sapiens) (UniProt P43403); assay: Selectivity interaction (ProQinase) EUB0000171b ZAP70
T2 sequence (whole entry): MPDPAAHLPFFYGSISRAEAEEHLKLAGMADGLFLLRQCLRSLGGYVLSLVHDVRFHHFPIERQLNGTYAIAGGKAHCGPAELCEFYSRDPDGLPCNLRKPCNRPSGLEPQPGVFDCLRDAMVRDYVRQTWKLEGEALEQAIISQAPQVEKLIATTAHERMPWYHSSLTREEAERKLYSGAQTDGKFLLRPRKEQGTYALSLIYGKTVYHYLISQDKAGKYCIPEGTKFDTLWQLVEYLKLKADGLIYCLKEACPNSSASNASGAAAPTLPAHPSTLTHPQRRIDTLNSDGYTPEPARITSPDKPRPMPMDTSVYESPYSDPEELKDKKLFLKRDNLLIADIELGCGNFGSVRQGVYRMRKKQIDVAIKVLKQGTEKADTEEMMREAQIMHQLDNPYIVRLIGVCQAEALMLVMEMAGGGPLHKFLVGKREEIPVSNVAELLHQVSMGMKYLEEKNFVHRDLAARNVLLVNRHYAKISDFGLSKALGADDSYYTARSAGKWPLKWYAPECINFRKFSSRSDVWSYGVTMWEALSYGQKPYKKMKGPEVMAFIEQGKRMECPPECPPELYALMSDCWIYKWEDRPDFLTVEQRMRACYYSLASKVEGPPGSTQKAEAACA

[5] = target: Ribosomal protein S6 kinase alpha-1 (Homo sapiens, UniProt Q15418); assay: Selectivity interaction (KinomeScan (DiscoverX)) EUB0000666a RPS6KA1; settings: at 10 µM
[6] = target: T3, Serine/threonine-protein kinase ULK3 (Homo sapiens) (UniProt Q6PHR2); assay: Selectivity interaction (KinomeScan (DiscoverX)) EUB0000666a ULK3; settings: at 10 µM
T3 sequence (whole entry): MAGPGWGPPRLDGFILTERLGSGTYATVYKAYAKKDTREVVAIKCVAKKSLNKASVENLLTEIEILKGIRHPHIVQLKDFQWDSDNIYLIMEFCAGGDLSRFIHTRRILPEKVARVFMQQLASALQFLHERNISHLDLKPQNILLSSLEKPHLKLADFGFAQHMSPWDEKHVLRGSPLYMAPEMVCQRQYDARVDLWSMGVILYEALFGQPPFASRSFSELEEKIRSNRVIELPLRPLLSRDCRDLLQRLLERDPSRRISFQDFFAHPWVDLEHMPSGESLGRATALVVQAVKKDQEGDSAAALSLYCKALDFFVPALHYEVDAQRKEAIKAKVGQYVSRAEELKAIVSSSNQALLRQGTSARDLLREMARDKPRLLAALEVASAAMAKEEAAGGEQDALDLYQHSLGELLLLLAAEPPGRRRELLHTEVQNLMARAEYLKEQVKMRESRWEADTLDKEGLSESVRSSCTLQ

[7] = target: Serine/threonine-protein kinase 32B (Homo sapiens) (UniProt Q9NY57); assay: Selectivity interaction (LanthaScreen Eu Kinase Binding Assay) EUB0001632a STK32B; settings: at 10 µM
Chain of Serine/threonine-protein kinase 32B (Homo sapiens) (Q9NY57 whole entry): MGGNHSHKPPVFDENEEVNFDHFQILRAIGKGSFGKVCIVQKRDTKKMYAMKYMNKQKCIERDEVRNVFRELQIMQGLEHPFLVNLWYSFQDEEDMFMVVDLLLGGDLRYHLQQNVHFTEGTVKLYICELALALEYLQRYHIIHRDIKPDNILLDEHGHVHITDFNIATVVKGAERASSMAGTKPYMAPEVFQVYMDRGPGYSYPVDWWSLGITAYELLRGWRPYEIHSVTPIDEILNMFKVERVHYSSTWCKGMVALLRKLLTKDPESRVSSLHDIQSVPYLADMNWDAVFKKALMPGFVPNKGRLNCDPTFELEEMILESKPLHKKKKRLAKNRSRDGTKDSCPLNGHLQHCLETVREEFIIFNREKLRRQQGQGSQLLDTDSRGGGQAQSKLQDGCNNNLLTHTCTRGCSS

Chain of Serine/threonine-protein kinase 17A (Q9UEE5 whole entry, the tested form may be a part): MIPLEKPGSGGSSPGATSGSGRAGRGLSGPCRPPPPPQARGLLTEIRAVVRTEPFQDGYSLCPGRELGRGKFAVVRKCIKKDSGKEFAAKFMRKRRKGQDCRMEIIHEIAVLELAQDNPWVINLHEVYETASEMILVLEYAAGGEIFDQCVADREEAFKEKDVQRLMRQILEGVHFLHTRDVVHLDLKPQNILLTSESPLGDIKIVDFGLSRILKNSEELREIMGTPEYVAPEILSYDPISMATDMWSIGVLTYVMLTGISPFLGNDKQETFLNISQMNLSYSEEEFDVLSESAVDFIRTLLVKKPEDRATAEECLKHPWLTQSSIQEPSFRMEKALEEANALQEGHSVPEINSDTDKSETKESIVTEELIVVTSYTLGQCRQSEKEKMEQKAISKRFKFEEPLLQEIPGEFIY
Chain of Receptor tyrosine-protein kinase erbB-2 (P04626 whole entry): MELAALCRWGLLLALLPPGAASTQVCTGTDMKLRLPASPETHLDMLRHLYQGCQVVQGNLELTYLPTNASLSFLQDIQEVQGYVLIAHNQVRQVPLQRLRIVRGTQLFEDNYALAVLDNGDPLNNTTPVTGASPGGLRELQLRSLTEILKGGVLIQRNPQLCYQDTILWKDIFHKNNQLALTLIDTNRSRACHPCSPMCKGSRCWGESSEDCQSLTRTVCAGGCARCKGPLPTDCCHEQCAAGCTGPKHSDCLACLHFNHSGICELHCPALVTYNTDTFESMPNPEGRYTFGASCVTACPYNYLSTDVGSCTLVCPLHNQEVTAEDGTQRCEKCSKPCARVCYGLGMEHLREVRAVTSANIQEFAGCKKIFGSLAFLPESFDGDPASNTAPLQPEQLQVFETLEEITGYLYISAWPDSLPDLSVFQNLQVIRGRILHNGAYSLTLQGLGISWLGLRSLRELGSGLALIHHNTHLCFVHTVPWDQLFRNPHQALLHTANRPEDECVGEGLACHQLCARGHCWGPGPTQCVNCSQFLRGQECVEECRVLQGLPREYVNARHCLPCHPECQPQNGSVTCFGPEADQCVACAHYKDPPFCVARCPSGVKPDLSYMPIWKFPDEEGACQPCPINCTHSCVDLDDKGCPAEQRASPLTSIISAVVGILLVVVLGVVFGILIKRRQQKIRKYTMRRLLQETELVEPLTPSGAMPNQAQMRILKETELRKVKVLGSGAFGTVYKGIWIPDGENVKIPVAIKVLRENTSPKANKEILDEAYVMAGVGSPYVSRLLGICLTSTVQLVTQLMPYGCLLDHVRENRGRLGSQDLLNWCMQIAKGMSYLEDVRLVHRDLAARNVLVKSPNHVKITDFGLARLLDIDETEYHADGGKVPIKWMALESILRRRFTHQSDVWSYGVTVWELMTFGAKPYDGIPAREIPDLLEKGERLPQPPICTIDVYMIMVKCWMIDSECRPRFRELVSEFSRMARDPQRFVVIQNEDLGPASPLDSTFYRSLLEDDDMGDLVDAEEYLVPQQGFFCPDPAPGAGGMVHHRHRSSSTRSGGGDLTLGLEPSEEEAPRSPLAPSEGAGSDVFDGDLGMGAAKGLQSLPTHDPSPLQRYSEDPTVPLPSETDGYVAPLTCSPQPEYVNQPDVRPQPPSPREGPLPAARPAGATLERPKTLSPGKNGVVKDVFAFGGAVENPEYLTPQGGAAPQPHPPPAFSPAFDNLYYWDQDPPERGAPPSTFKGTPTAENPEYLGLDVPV
Chain of Ribosomal protein S6 kinase alpha-1 (Q15418 whole entry): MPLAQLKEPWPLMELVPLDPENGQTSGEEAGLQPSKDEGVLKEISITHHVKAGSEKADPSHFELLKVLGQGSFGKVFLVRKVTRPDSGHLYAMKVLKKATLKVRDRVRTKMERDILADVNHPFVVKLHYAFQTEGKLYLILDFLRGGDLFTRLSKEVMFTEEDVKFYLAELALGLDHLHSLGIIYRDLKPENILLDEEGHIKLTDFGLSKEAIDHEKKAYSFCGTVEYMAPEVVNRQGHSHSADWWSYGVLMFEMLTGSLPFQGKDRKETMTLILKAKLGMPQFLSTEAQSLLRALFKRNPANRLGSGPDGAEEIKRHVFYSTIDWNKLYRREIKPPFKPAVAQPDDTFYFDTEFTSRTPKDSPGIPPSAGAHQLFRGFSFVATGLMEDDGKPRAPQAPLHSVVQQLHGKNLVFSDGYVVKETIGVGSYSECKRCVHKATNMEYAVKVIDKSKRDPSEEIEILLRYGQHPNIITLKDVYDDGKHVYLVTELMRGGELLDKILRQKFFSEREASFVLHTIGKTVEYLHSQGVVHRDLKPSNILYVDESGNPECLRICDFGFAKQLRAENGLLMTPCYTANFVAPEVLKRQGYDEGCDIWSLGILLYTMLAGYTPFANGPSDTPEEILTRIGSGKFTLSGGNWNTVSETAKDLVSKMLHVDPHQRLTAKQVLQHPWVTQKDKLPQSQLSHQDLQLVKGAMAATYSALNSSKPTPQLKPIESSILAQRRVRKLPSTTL
Chain of Insulin receptor (P06213 28-758 limits assumed): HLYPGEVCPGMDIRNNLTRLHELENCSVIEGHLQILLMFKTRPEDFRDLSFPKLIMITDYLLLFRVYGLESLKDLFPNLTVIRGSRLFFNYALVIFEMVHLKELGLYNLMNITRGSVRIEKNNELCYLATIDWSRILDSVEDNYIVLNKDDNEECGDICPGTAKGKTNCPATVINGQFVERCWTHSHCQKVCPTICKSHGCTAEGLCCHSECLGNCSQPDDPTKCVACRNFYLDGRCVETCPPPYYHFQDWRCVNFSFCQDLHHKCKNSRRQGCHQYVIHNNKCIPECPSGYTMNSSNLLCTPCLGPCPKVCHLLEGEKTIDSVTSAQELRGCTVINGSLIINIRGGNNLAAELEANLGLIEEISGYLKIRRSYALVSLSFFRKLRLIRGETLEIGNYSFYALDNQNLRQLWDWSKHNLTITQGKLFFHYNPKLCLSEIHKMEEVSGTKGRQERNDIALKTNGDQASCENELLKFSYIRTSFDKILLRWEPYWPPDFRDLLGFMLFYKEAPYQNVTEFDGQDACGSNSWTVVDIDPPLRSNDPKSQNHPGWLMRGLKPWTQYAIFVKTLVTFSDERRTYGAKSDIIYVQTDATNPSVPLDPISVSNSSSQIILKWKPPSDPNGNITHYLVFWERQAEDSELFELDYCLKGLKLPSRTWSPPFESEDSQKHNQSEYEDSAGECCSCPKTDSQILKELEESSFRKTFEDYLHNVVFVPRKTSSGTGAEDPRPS
Chain of Insulin receptor (P06213 763-1382 limits assumed): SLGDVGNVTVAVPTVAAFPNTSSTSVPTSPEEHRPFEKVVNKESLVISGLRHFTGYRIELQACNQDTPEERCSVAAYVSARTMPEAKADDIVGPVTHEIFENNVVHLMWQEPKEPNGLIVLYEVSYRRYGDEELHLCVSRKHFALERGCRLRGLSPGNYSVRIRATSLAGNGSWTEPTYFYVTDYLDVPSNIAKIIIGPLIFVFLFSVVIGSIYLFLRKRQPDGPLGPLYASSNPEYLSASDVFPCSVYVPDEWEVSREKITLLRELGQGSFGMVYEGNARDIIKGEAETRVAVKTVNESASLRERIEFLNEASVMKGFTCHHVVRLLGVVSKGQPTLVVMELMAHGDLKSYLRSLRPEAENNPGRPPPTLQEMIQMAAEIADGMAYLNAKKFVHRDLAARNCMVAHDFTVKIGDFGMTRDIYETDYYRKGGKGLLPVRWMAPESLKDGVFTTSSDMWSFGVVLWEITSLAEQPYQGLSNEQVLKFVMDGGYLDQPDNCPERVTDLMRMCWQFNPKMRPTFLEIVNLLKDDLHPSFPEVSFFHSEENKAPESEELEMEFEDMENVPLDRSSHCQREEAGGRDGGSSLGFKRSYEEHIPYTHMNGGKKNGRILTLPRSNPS

SMILES: CN1CCN(C(=O)c2ccc3cc2OCCOCCNc2ccn4ncc-3c4n2)CC1
IC50 [2]: 20 µM

SMILES: C=CC(=O)Nc1cc(-n2c(=O)ccc3cnc4ccc(-c5ccc(NS(C)(=O)=O)cc5)cc4c32)ccc1C
% of control ([3]; at 1 µM): 100% | % of control ([3]; at 10 µM): 8.7%

SMILES: O=C(NOC[C@H](O)CO)c1ccc(F)c(F)c1Nc1ccc(I)cc1F
% of control [5]: 84% | % of control [6]: 89%

SMILES: Cn1cc(-n2cnc3c(NCc4nc5cc(Cl)c(Cl)cc5[nH]4)nc(N4CCOCC4)nc32)cn1
% of inhibition [7]: -8.62%

Second part, the compound after the results:

IC50 [1]: > 10 µM
SMILES: CCc1cc(Nc2nccc(-c3c(-c4ccc(OC)c(C(=O)Nc5c(F)cccc5F)c4)nc4ccccn34)n2)c(OC)cc1N1CCC(N2CCN(S(C)(=O)=O)CC2)CC1

IC50 (Insulin receptor): > 10 µM
SMILES: CCc1cccc(CC)c1NC(=O)c1nn(C)c2c1CCc1cnc(Nc3ccc(C(=O)NC4CCN(C)CC4)cc3OC(F)(F)F)nc1-2

% of control ([4]; at 1 µM): 88% | % of control ([4]; at 5 µM): 93%
SMILES: C=CC(=O)Nc1cccc(C(=O)Nc2ccc(Nc3cc(-c4[nH]c(SC)nc4C)ccn3)cc2)c1
